{
  "source": "patent US20240182525A1",
  "about": "“NOVEL BICYCLIC COMPOUND, OPTICAL ISOMER THEREOF OR PHARMACEUTICALLY ACCEPTABLE SALT THEREOF, USE THEREOF, AND PREPARATION METHOD THEREFOR” (KOREARESEARCH INSTITUTE OF BIOSCIENCE AND BIOTECHNOLOGY, priority 2021, published 2024)",
  "key": {"[1]": {"test_system": "MC3T3-E1 cell line", "test": "Cytotoxicity assay in MC3T3-E1 pre-osteoblasts", "assay_type": "cell-based, mouse", "conditions": "concentration range of 50 μM or less, 7 days, FIG. 14", "protocol": "In order to measure the cytotoxicity of the compound represented by Chemical Formula 1 (Chemical Formula 1-1), toxicity was measured in the MC3T3-E1 cell line (Korea Cell Line Bank), which is a pre-osteoblast related to bone formation.\nSpecifically, a cytotoxicity test was performed to determine the in vivo safety of Chemical Formula 1-1 above. MC3T3-E1 cells, which are mouse osteoblasts, were inoculated into a 96-well plate at a concentration of 5×10^3 cell/well, and incubated overnight in growth media containing alpha-minimum essential media (alpha-MEM, JBI #008-53) supplemented with 10% fetal bovine serum (FBS, Gibco #16000, USA) and 1× antibiotics (Gibco #15240062, USA). […] After incubation, the media were removed, 90 μl of the media and 10 μl of WTS solution were added, and after 1 hour, the absorbance was measured at 450 nm using a microplate reader."}, "[2]": {"test": "Cytotoxicity assay, HEK293T", "assay_type": "cell-based", "conditions": "human, HEK293T cells (embryonic kidney), maximum concentration 100 μM", "protocol": "(§1) To measure the cytotoxicity of the compound represented by Chemical Formula 1 (Chemical Formula 1-1), toxicity was measured in mouse preadipocyte 3T3-L1 cell line, human malignant melanoma A375 cell line, mouse malignant melanoma B16F10 cell line, human oral cancer MDA-MB-435 cell line, mouse breast cancer 4T1 cell line, human breast cancer MCF7 cell line, human brain cancer U87MG cell line, human glioblastoma U373MG cell line, human cervical cancer HeLa cell line, mouse embryonic fibroblast (MEF) cell line, human embryonic kidney HEK293T cell line (Korea Cell Line Bank). First, 1×10^4 cells were divided into 200 μl each in a 96-well plate using Dulbecco's Modified Eagle's Medium (DMEM) supplemented with 10% fetal bovine serum (FBS), […] streptomycin, and 50 U/ml penicillin, while maintaining various cells at 37r in an atmosphere of 5% CO2. The cells were treated with the compound of Chemical Formula 1-1 of the present invention at a maximum concentration of 100 μM and cultured for 48 hours under the same culture conditions. After the incubation, the culture media were removed and the cytotoxicity test results were confirmed (Table 2 and FIG. 3 below)."}, "[3]": {"test_system": "MC3T3-E1 cells", "test": "Alkaline phosphatase (ALP) staining of MC3T3-E1 cells", "assay_type": "cell-based, mouse", "conditions": "5, 10, and 20 νM, 7 days, FIG. 15", "source_text": "In order to analyze the effect of the compound of Chemical Formula 1 according to the present invention on ALP activity, the morphology of MC3T3-E1 cells according to the treatment with the compound of Chemical Formula 1 according to the present invention was confirmed by alkaline phosphatase (ALP) staining of the MC3T3-E1 cell line.\nIn the present Example, the effect of Chemical Formula 1-1 on the activity of alkaline phosphatase (ALP), which is one of the representative markers of osteoblast differentiation, was measured. MC3T3-E1 cells, which are mouse osteoblasts, were inoculated into a 96-well plate at a concentration of 5×10^3 cell/well, and incubated overnight in growth media containing alpha-minimum essential media (alpha-MEM, JBI #008-53) supplemented with 10% fetal bovine serum (FBS, Gibco #16000, USA) and 1× antibiotics (Gibco #15240062, USA). As a negative control, an alpha minimum essential medium containing 10% FBS was used. As positive controls, 100 μg/ml of ALP-activating ascorbic acid and 10 mM of β-glycerophosphate were mixed, and the positive controls were exchanged with media added with 5, 10, and 20 νM of Chemical Formula 1-1 on Day 3, and treated for 7 days. After 7 days, the media were discarded, and the cells were washed with PBS, and fixed with 10% formalin for 1 minute. […]"}, "[4]": {"test": "Cytotoxicity assay, MCF7", "assay_type": "cell-based", "conditions": "human, MCF7 cells (breast cancer); MCF7, 48 hours, maximum concentration 100 μM", "protocol": "as §1"}, "[5]": {"test_system": "C57BL/C6 mice", "test": "Blood obesity and liver damage markers in high calorie diet mice", "assay_type": "in vivo, mouse", "conditions": "plasma, compared to high calorie control group, FIG. 13", "protocol": "Then, after the experiment was completed, the animal blood of each group was collected and centrifuged to separate plasma, and then representative obesity markers in the blood such as total cholesterol (tCHO), high density lipoprotein (HDL), and low density lipoprotein (LDL), and liver damage markers such as glutamic oxaloacetic transaminase (GOT) and glutamic pyruvic acid transaminase (GPT) were analyzed with a blood chemistry analyzer."}, "[6]": {"test": "Cytotoxicity assay, A375", "assay_type": "cell-based", "conditions": "human, A375 cells (malignant melanoma); A375, 48 hours, maximum concentration 100 μM", "protocol": "as §1"}, "[7]": {"test_system": "adipogenesis-associated genes (3T3-L1 cells)", "test": "Q-PCR of adipogenesis-associated genes", "assay_type": "cell-based, mouse", "conditions": "FIG. 11", "source_text": "In addition, real-time polymerase chain reaction (Q-PCR) was used to confirm the expression of adipogenesis-associated genes. As a result, it was confirmed that the amount of adipogenesis induction-associated mRNA was reduced when treated with the compound of Chemical Formula 1 according to the present invention (FIG. 11)."}, "[8]": {"test": "Cytotoxicity assay, 3T3-L1", "assay_type": "cell-based", "conditions": "mouse, 3T3-L1 cells (preadipocytes); 3T3-L1, 48 hours, maximum concentration 100 μM", "protocol": "as §1"}, "[9]": {"test_system": "Wnt activity (HEK293T-TopFLASH cells)", "test": "TopFLASH luciferase assay, HEK293T-TopFLASH stable cell line (Wnt3a activity assay)", "assay_type": "cell-based, human", "conditions": "1-50 μM, 24 hours", "protocol": "In order to measure the level of Wnt activity of the compound of Chemical Formula 1-1, TopFLASH luciferase assay was performed on the HEK293T cell line. The TopFLASH luciferase assay was performed by creating a HEK293T-TopFLASH stable cell line with a viral vector made by combining Luciferase (reporter gene) with the TCF7 promoter. HEK293T-TopFLASH cells were cultured in a 96-well plate (1×10^4 cells/well), and the next day, the cells were treated with 1-50 μM of the compound of Chemical Formula 1-1 and confirmed by One-Glo™ (modified luciferin, Pormega, USA) after 24 hours."}},
  "data": [
    {"smiles": "CC(C)CC1NC(=O)C2CCCN2C(=O)C(C(O)C(C)C)NC(=O)CNC(=O)C(C(C)O)NC(=O)C2NC(=O)C(NC(=O)/C=C/c3ccccc3C(O)C(C)O)C(C)OC(=O)C(CC(N)=O)NC(=O)C(NC(=O)C(O)NC1=O)C(O)c1ccc(O)c(c1)Oc1ccc2cc1", "note": "(centres unmarked) [Chemical Formula 1-1]", "values": [
      {"measurement": "cytotoxicity", "setting": "[1]", "value": "did not exhibit cytotoxicity"},
      {"measurement": "IC50 at 48 h", "setting": "[2]", "value": "> 100", "unit": "µM"},
      {"measurement": "alkaline phosphatase staining (ALP) positive cells", "setting": "[3]", "value": "strongly stained in a concentration-dependent manner"},
      {"measurement": "IC50 at 48 h", "setting": "[4]", "value": "> 100", "unit": "µM"},
      {"measurement": "glutamic oxaloacetic transaminase (GOT)", "setting": "[5]", "value": "significantly reduced"},
      {"measurement": "glutamic pyruvic acid transaminase (GPT)", "setting": "[5]", "value": "significantly reduced"},
      {"measurement": "high density lipoprotein (HDL)", "setting": "[5]", "value": "increased"},
      {"measurement": "low density lipoprotein (LDL)", "setting": "[5]", "value": "significantly reduced"},
      {"measurement": "total cholesterol (tCHO)", "setting": "[5]", "value": "significantly reduced"},
      {"measurement": "IC50 at 48 h", "setting": "[6]", "value": "> 100", "unit": "µM"},
      {"measurement": "amount of adipogenesis induction-associated mRNA", "setting": "[7]", "value": "reduced"},
      {"measurement": "IC50 at 48 h", "setting": "[8]", "value": "> 100", "unit": "µM"},
      {"measurement": "Wnt activity (luciferase values)", "setting": "[9]; compound alone, FIG. 4", "value": "greatly increased"},
      {"measurement": "Wnt activity (luciferase values)", "setting": "[9]; simultaneous treatment with Wnt3a-conditional media (2.5%), FIG. 5", "value": "greatly increased"}
    ]}
  ]
}
